ChEMBL document CHEMBL5303763, “Data for DCP probe BI-3802” (2023)

Key:
[1] = target: AMP-activated protein kinase (AMPK) alpha-1/beta-1/gamma-1 (Homo sapiens) (UniProt P54619+Q9Y478+Q13131); assay: AMPK A1B1G1 Invitrogen Lab (UK) kinase screen (BI); assay type: protein-complex assay; settings: Compound concentration 1.0 uM
[2] = target: Dual specificity protein kinase CLK1 (Homo sapiens) (UniProt P49759); assay: CLK1 Invitrogen Lab (UK) kinase screen (BI); settings: Compound concentration 1.0 uM
[3] = target: Tyrosine-protein kinase Lyn (Homo sapiens) (UniProt P07948); assay: LYN A Invitrogen Lab (UK) kinase screen (BI); settings: Compound concentration 1.0 uM
[4] = target: Mitogen-activated protein kinase 9 (Homo sapiens) (UniProt P45984); assay: MAPK9 Invitrogen Lab (UK) kinase screen (BI); settings: Compound concentration 1.0 uM
[5] = target: MAP kinase-activated protein kinase 2 (Homo sapiens) (UniProt P49137); assay: MAPKAPK2 Invitrogen Lab (UK) kinase screen (BI); settings: Compound concentration 1.0 uM
[6] = target: cAMP-dependent protein kinase catalytic subunit alpha (Homo sapiens) (UniProt P17612); assay: PRKACA Invitrogen Lab (UK) kinase screen (BI); settings: Compound concentration 1.0 uM
[7] = target: Protein kinase C alpha type (Homo sapiens) (UniProt P17252); assay: PRKCA Invitrogen Lab (UK) kinase screen (BI); settings: Compound concentration 1.0 uM
[8] = target: Proto-oncogene tyrosine-protein kinase receptor Ret (Homo sapiens) (UniProt P07949); assay: RET Invitrogen Lab (UK) kinase screen (BI); settings: Compound concentration 1.0 uM
[9] = target: Ribosomal protein S6 kinase beta-1 (Homo sapiens) (UniProt P23443); assay: RPS6KB1 Invitrogen Lab (UK) kinase screen (BI); settings: Compound concentration 1.0 uM
[10] = target: T1, 5-hydroxytryptamine receptor 1A (Homo sapiens) (UniProt P08908); settings: Compound concentration 10.0 uM
T1 sequence (whole entry): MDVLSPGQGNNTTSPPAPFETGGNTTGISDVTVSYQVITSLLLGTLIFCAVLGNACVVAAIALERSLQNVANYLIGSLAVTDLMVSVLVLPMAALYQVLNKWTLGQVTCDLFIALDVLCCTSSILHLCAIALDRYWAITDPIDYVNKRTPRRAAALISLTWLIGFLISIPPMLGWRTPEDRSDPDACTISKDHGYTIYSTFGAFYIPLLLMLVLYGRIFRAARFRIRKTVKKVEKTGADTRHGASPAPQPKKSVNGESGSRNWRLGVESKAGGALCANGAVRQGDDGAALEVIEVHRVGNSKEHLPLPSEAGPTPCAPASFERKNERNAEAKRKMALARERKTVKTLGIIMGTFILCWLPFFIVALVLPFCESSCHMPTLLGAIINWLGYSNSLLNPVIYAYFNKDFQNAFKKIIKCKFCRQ

[11] = target: D(1B) dopamine receptor (Homo sapiens) (UniProt P21918); settings: Compound concentration 10.0 uM
D(1B) dopamine receptor (Homo sapiens), sequence (P21918 whole entry): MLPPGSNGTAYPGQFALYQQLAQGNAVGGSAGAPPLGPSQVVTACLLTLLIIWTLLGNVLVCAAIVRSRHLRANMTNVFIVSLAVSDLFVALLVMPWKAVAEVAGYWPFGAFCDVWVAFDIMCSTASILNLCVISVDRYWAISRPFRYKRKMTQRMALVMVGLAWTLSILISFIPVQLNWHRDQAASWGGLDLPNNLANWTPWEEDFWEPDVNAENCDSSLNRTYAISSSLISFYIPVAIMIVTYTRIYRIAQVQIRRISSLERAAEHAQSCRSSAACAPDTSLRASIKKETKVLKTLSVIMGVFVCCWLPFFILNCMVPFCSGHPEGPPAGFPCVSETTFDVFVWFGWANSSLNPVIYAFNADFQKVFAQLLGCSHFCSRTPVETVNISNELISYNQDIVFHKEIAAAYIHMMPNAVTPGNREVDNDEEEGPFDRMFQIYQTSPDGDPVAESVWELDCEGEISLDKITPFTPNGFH

[12] = target: Sodium-dependent dopamine transporter (Homo sapiens) (UniProt Q01959); settings: Compound concentration 10.0 uM
Sodium-dependent dopamine transporter (Homo sapiens), sequence (Q01959 whole entry): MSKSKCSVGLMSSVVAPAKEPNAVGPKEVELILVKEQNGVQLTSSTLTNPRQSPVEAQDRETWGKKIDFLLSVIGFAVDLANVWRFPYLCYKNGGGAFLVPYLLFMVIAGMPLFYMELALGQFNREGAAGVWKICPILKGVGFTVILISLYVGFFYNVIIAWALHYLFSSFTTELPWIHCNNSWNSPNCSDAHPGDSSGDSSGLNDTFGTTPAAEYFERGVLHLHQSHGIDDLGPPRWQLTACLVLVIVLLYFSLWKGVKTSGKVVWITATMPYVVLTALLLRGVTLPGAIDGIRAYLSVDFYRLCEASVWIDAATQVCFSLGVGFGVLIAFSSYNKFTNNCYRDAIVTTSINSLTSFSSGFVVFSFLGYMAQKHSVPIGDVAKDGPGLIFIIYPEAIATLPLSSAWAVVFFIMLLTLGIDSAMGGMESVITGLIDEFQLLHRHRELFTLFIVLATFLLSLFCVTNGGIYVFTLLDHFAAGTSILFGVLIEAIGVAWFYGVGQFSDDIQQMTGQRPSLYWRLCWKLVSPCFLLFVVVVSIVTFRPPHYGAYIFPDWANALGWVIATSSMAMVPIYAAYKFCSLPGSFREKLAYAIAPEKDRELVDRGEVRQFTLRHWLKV

[13] = target: Histamine H3 receptor (Homo sapiens) (UniProt Q9Y5N1); settings: Compound concentration 10.0 uM
Histamine H3 receptor (Homo sapiens), sequence (Q9Y5N1 whole entry): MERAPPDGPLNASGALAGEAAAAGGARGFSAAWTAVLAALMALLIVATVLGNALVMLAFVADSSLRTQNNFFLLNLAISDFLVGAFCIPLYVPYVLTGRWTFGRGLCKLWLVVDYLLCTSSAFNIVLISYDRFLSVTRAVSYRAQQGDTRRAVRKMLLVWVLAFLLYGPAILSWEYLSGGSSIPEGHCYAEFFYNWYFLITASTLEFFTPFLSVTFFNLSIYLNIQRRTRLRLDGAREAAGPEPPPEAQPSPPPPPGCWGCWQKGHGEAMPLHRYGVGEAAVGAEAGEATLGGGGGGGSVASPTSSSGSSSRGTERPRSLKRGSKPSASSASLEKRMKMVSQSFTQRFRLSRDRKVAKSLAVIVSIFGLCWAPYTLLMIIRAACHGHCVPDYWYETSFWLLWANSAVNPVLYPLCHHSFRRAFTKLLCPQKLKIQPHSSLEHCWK

[14] = target: Histamine H4 receptor (Homo sapiens) (UniProt Q9H3N8); settings: Compound concentration 10.0 uM
Histamine H4 receptor (Homo sapiens), sequence (Q9H3N8 whole entry): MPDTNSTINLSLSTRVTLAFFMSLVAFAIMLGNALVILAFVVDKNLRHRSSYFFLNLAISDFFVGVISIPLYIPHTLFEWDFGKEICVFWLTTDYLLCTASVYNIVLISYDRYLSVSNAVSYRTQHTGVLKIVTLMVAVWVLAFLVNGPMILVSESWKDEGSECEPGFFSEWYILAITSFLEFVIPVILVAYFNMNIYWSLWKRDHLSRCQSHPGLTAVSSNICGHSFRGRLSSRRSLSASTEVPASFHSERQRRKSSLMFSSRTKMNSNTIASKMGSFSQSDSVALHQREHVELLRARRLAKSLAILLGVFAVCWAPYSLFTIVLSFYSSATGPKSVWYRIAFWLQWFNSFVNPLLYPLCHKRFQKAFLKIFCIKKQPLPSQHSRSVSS

[15] = target: Alpha-2B adrenergic receptor (Homo sapiens) (UniProt P18089); settings: Compound concentration 10.0 uM
Alpha-2B adrenergic receptor (Homo sapiens), sequence (P18089 whole entry): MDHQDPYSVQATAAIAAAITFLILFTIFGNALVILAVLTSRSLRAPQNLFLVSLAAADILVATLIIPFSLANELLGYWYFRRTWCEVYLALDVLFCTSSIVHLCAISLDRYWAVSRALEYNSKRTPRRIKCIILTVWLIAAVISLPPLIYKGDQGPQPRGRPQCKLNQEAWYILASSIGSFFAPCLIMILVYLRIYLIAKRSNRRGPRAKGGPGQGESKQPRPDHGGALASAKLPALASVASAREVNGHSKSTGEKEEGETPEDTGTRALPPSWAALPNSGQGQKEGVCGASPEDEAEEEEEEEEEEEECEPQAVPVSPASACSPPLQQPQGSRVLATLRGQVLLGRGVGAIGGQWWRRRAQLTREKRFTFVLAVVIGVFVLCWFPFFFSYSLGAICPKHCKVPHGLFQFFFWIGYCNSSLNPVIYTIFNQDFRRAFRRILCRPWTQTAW

[16] = target: T2, Muscarinic acetylcholine receptor M2 (Homo sapiens) (UniProt P08172); settings: Compound concentration 10.0 uM
T2 sequence (whole entry): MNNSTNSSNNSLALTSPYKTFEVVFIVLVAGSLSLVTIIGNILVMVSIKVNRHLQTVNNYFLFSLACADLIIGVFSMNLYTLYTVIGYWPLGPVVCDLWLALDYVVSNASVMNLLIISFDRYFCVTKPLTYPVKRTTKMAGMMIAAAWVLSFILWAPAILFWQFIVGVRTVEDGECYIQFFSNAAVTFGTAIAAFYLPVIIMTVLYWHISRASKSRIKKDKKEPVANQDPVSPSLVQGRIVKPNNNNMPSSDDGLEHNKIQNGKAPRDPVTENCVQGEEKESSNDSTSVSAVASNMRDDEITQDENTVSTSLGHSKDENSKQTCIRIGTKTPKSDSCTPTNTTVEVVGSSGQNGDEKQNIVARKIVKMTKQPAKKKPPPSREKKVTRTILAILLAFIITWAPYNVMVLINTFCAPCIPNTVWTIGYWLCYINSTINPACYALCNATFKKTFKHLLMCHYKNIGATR

[17] = tested on: Voltage-gated K+ channel Kv1 (Rattus norvegicus); assay: K+/VOLT/RA Eurofins SafetyScreen44 (BI); settings: rat brain, probe [125I]a-dendrotoxin, read-out: % Ctrl
[18] = target: Zinc finger and BTB domain-containing protein 32 (Homo sapiens, UniProt Q9Y2Y4); assay: SPR (ZBTB32), Ontario institute for cancer research
Zinc finger and BTB domain-containing protein 32, sequence (Q9Y2Y4 whole entry, the tested form may be a part): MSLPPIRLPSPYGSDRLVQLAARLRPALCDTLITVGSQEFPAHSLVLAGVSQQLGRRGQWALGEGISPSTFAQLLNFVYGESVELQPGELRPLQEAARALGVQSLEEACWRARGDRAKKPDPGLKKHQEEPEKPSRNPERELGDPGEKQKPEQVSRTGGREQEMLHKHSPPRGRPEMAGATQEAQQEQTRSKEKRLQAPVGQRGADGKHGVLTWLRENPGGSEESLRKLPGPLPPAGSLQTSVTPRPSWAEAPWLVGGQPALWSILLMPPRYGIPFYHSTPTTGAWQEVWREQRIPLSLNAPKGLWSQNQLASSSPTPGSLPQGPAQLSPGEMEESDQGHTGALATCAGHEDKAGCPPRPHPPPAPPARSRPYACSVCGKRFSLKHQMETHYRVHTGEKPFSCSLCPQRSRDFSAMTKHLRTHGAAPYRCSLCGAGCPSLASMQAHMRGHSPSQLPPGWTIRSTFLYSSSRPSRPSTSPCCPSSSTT

AMP-activated protein kinase (AMPK) alpha-1/beta-1/gamma-1 (Homo sapiens), sequence (P54619 whole entry): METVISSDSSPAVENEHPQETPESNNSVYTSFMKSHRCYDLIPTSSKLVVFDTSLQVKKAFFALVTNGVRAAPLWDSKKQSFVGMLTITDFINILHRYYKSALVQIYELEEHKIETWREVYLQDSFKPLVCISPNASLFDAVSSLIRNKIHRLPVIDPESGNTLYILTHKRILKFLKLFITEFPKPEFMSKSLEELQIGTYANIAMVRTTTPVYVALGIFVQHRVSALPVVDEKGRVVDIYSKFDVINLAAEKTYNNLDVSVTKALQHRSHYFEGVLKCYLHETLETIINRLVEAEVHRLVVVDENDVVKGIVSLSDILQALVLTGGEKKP
AMP-activated protein kinase (AMPK) alpha-1/beta-1/gamma-1 (Homo sapiens), sequence (Q13131 whole entry partner): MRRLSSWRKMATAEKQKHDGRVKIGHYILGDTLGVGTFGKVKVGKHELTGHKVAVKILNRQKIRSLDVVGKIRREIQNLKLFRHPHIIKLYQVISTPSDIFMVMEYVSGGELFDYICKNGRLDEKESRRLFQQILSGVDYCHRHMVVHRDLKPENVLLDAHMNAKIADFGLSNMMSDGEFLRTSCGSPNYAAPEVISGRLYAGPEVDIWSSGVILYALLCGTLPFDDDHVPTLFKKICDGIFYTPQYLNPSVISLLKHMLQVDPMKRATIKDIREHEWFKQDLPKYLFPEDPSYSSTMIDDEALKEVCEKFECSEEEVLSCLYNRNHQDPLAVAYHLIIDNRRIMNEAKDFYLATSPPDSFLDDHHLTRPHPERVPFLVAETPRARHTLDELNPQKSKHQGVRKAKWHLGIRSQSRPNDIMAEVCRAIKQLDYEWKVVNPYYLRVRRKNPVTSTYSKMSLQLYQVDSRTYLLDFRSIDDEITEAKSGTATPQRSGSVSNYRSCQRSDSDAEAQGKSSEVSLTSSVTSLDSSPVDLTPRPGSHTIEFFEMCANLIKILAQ
AMP-activated protein kinase (AMPK) alpha-1/beta-1/gamma-1 (Homo sapiens), sequence (Q9Y478 2-270 partner limits assumed): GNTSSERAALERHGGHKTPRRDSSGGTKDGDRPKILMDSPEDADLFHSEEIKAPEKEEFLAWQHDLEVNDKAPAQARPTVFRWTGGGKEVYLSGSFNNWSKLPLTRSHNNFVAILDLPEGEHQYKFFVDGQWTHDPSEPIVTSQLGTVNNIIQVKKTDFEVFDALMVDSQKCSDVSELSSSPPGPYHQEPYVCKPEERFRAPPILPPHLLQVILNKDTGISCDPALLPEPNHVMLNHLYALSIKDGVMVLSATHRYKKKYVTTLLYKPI

Structure (SMILES) | residual activity [1] | residual activity [2] | residual activity [3] | residual activity [4] | residual activity [5] | residual activity [6] | residual activity [7] | residual activity [8] | residual activity [9] | inhibition [10] | inhibition [11] | inhibition [12] | inhibition [13] | inhibition [14] | inhibition [15] | inhibition [16] | activity at 10 µM [17] | Kd [18]
CNC(=O)COc1cc2cc(Nc3nc(N4C[C@H](C)C[C@H](C)C4)ncc3Cl)ccc2n(C)c1=O | 101% | 107% | 104% | 110% | 102% | 91% | 113% | 101% | 97% | 27% | 1.96% | 12.6% | 12.7% | -0.56% | 7.35% | -5.1% | 105% (not active) | –
C[C@@H]1C[C@H](C)CN(c2ncc(Cl)c(Nc3ccc4c(c3)cc(OC(C)(C)C(=O)O)c(=O)n4C)n2)C1 | – | – | – | – | – | – | – | – | – | – | – | – | – | – | – | – | – | No binding
